Source: patent US9206130B2, “Quinoline derivatives as AXL kinase inhibitors” (Max-Planck-Gesellschaft zur Förderung der Wissenschaften …, priority 2008, dated 2015)

What was measured:
[1] = target: T1, wild type AXL (wtAXL) receptor tyrosine kinase (Homo sapiens, UniProt P30530); experiment: NIH-3T3-AXL cellular tyrosine kinase assay (inhibition of AXL phosphorylation); type: cell-based; conditions: AXL phosphorylation in NIH-3T3-AXL (clone 22) cells, serum-depleted, 2 h with compound, immunoprecipitation / anti-phosphotyrosine blot
T1 construct: WtAXL cDNA was cloned into vector pLXSN(ESK) and transfected into Phoenix E packaging cells; expressed in transfected cells; host or cells: NIH3T3 N7 mouse fibroblasts, retrovirally infected (clone 22)
T1 sequence (P30530 26-894): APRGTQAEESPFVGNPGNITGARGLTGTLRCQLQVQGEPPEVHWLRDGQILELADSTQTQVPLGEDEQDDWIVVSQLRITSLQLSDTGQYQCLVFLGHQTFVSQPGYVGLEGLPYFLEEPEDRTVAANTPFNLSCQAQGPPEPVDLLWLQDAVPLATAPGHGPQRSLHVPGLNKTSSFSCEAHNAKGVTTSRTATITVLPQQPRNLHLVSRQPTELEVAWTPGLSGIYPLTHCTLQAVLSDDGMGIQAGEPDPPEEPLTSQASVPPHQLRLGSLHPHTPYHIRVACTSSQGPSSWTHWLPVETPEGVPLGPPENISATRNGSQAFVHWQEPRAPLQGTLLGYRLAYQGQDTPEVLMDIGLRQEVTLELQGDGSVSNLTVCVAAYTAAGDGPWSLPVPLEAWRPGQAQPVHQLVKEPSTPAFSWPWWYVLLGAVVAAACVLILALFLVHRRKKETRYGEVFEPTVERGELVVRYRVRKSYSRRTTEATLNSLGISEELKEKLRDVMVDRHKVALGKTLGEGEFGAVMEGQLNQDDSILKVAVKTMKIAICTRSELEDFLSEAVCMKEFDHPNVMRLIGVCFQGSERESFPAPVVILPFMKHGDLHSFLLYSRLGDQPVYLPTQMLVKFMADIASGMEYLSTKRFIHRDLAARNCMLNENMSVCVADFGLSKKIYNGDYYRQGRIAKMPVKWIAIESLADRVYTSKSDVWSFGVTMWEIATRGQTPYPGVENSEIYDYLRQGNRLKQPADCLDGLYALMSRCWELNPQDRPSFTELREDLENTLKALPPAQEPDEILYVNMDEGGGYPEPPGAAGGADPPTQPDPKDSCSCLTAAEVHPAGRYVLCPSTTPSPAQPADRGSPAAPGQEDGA
Summary of the method: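 Compound inhibition of AXL autophosphorylation was read by 4G10 immunoblot after anti-AXL immunoprecipitation from lysates. Cells: NIH3T3 lines stably carrying retroviral wild-type human AXL, treated 2 h with compound dilution series.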

Compound | IC50 [1] [µM] | melting point [°C]
Cc1cc(Oc2ccc(NS(=O)(=O)c3ccc(-c4cnco4)s3)cc2)c2cc(F)ccc2n1 [Example B19, 5-Oxazol-5-yl-thiophene-2-sulfonic acid [4-(6-fluoro-2-methyl-quinolin-4-yloxy)-phenyl]-amide] | 8 | 164 to 166
Cc1cc(Oc2ccc(NS(=O)(=O)c3cccc(-c4ccccc4)c3)c(F)c2)c2cccc(C(F)(F)F)c2n1 [Example C02, Biphenyl-3-sulfonic acid [2-fluoro-4-(2-methyl-8-trifluoromethyl-quinolin-4-yloxy)-phenyl]-amide] | > 10 | 187 to 188
Cc1cc(Oc2ccc(NS(=O)(=O)c3cc(Cl)ccc3Cl)c(F)c2)c2cccc(C(F)(F)F)c2n1 [Example C05, 2,5-Dichloro-N-[2-fluoro-4-(2-methyl-8-trifluoromethyl-quinolin-4-yloxy)-phenyl]-benzenesulfonamid] | > 10 | 207 to 209
Cc1cc(Oc2ccc(NS(=O)(=O)c3c(Cl)cccc3Cl)c(F)c2)c2cccc(C(F)(F)F)c2n1 [Example C06, 2,6-Dichloro-N-[2-fluoro-4-(2-methyl-8-trifluoromethyl-quinolin-4-yloxy)-phenyl]-benzenesulfonamide] | > 10 | 171 to 173
COc1cc(C)c(C)cc1S(=O)(=O)Nc1ccc(Oc2cc(C)nc3c(C(F)(F)F)cccc23)c(F)c1 [Example C10, N-[3-Fluoro-4-(2-methyl-8-trifluoromethyl-quinolin-4-yloxy)-phenyl]-2-methoxy-4,5-dimethyl-benzenesulfonamide] | > 10 | 230 to 232
Cc1cc(Oc2ccc(NS(=O)(=O)c3cc(F)ccc3F)c(F)c2)c2cccc(C(F)(F)F)c2n1 [Example C11, 2,5-Difluoro-N-[2-fluoro-4-(2-methyl-8-trifluoromethyl-quinolin-4-yloxy)-phenyl]-benzenesulfonamide] | > 10 | 179 to 181
Cc1cc(Oc2ccc(NS(=O)(=O)c3ccc(F)c(Cl)c3)c(F)c2)c2cccc(C(F)(F)F)c2n1 [Example C12, 3-Chloro-4-fluoro-N-[2-fluoro-4-(2-methyl-8-trifluoromethyl-quinolin-4-yloxy)-phenyl]-benzenesulfonamide] | > 10 | 202 to 203
Cc1cc(Oc2ccc(NS(=O)(=O)c3ccc(OCc4c(C)noc4C)cc3)cc2F)c2cccc(C(F)(F)F)c2n1 [Example C14, 4-(3,5-Dimethyl-isoxazol-4-ylmethoxy)-N-[3-fluoro-4-(2-methyl-8-trifluoromethyl-quinolin-4-yloxy)-phenyl]-benzenesulfonamide] | > 10 | 193 to 195
Cc1cc(Oc2ccc(NS(=O)(=O)c3ccc(-c4ccccc4)cc3)c(F)c2)c2cccc(C(F)(F)F)c2n1 [Example C15] | > 10 | 215 to 217
Cc1cc(Oc2ccc(NS(=O)(=O)c3cccc(-c4ncccn4)c3)c(F)c2)c2cccc(C(F)(F)F)c2n1 [Example C16, N-[2-Fluoro-4-(2-methyl-8-trifluoromethyl-quinolin-4-yloxy)-phenyl]-3-pyrimidin-2-yl-benzenesulfonamide] | > 10 | 219 to 220

Further lines, results first:

IC50 [1] [µM] | melting point [°C] | Compound
> 10 | 170 to 172 | Cc1cc(Oc2ccc(NS(=O)(=O)c3ccc(Cl)s3)cc2)c2cc(F)ccc2n1 [Example B18, 5-Chloro-thiophene-2-sulfonic acid [4-(6-fluoro-2-methyl-quinolin-4-yloxy)-phenyl]-amide]
> 10 | 223 to 225 | Cc1cc(Oc2ccc(NS(=O)(=O)c3cccc4ccccc34)cc2)c2cc(F)ccc2n1 [Example B20, Naphthalene-1-sulfonic acid [4-(6-fluoro-2-methyl-quinolin-4-yloxy)-phenyl]-amide]
> 10 | 165 to 167 | CCn1cc(S(=O)(=O)Nc2ccc(Oc3cc(C)nc4ccc(F)cc34)cc2)cn1 [Example B21, 1-Ethyl-1H-pyrazole-4-sulfonic acid [4-(6-fluoro-2-methyl-quinolin-4-yloxy)-phenyl]-amide]
7 | 203 to 205 | Cc1cc(Oc2ccc(NS(=O)(=O)c3cc(Cl)cc(Cl)c3O)cc2)c2cc(F)ccc2n1 [Example B22, 3,5-Dichloro-N-[4-(6-fluoro-2-methyl-quinolin-4-yloxy)-phenyl]-2-hydroxy-benzenesulfonamide]
> 10 | 181 to 183 | Cc1cc(Oc2ccc(NS(=O)(=O)c3cc(Cl)cc(Cl)c3)c(F)c2)c2cccc(C(F)(F)F)c2n1 [Example C01, 3,5-Dichloro-N-[2-fluoro-4-(2-methyl-8-trifluoromethyl-quinolin-4-yloxy)-phenyl]-benzenesulfonamide]
> 10 | 167 to 168 | Cc1cc(Oc2ccc(NS(=O)(=O)c3cccc(Oc4ccccc4)c3)c(F)c2)c2cccc(C(F)(F)F)c2n1 [Example C03, N-[2-Fluoro-4-(2-methyl-8-trifluoromethyl-quinolin-4-yloxy)-phenyl]-3-phenoxy-benzenesulfonamide]
> 10 | 232 to 234 | Cc1cc(Oc2ccc(NS(=O)(=O)c3cccc4ccccc34)c(F)c2)c2cccc(C(F)(F)F)c2n1 [Example C04, Naphthalene-1-sulfonic acid [2-fluoro-4-(2-methyl-8-trifluoromethyl-quinolin-4-yloxy)-phenyl]-amide]
> 10 | 183 to 185 | Cc1cc(Oc2ccc(NS(=O)(=O)c3ccccc3C(F)(F)F)c(F)c2)c2cccc(C(F)(F)F)c2n1 [Example C07, N-[2-Fluoro-4-(2-methyl-8-trifluoromethyl-quinolin-4-yloxy)-phenyl]-2-trifluoromethyl-benzenesulfonamid]
> 10 | 242 to 244 | COc1ccc(S(=O)(=O)Nc2ccc(Oc3cc(C)nc4c(C(F)(F)F)cccc34)c(F)c2)c2ccccc12 [Example C08, 4-Methoxy-naphthalene-1-sulfonic acid [3-fluoro-4-(2-methyl-8-trifluoromethyl-quinolin-4-yloxy)-phenyl]-amide]
> 10 | 128 to 130 | COc1ccc(S(=O)(=O)Nc2ccc(Oc3cc(C)nc4c(C(F)(F)F)cccc34)c(F)c2)cc1F [Example C09, 3-Fluoro-N-[3-fluoro-4-(2-methyl-8-trifluoromethyl-quinolin-4-yloxy)-phenyl]-4-methoxy-benzenesulfonamide]
> 1 | 258 to 259 | Cc1cc(Oc2ccc(NS(=O)(=O)c3cnc(C)[nH]3)cc2F)c2cccc(C(F)(F)F)c2n1 [Example C13, 2-Methyl-3H-imidazole-4-sulfonic acid [3-fluoro-4-(2-methyl-8-trifluoromethyl-quinolin-4-yloxy)-phenyl]-amide]
> 10 | 182 to 184 | Cc1cc(Oc2ccc(NS(=O)(=O)c3cc4ccccc4s3)c(F)c2)c2cccc(C(F)(F)F)c2n1 [Example C17, Benzo[b]thiophene-2-sulfonic acid [2-fluoro-4-(2-methyl-8-trifluoromethyl-quinolin-4-yloxy)-phenyl]-amide]
